Data as given in ChEMBL document CHEMBL3826909, “Quinoxaline-based inhibitors of Ebola and Marburg VP40 egress” (Bioorg Med Chem Lett, 2016).
The source made the active and inactive calls. The rule behind the calls is not given here.

How the values were obtained:
[1] = molecular target: T1, Matrix protein VP40 (Lake Victoria marburgvirus (strain Ravn-87) (MARV) (Marburg virus (strainKenya/Ravn/1987))) (UniProt Q1PDC8); assay: Inhibition of Marburg virus VP40 PPxY L-domain motif-Nedd4 interaction in HEK293T cells coexpressing NYFP-Nedd4 and CYFP-mVP40 at 0.1 uM by inverted confocal microscopy based bimolecular complementation assay; format: cell-based; conditions: HEK-293T
T1 sequence (whole entry): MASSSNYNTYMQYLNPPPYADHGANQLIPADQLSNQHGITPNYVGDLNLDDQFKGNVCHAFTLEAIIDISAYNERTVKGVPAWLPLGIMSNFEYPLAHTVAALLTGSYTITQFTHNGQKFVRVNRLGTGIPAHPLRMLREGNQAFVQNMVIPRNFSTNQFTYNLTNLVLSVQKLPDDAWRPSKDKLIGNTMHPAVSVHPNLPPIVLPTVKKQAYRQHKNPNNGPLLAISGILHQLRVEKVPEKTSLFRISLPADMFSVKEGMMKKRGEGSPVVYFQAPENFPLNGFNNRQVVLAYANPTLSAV

[2] = molecular target: T1, Matrix protein VP40 (Lake Victoria marburgvirus (strain Ravn-87) (MARV) (Marburg virus (strainKenya/Ravn/1987))); assay: Inhibition of Marburg virus VP40 PPxY L-domain motif expressed in HEK293T cells assessed as reduction in VLP budding at 0.03 uM relative to control; format: cell-based; conditions: HEK-293T
[3] = Cytotoxicity against human HEK293T cells assessed as cell viability at 0.01 uM after 24 hrs by MTT assay relative to control; format: cell-based, HEK-293T; conditions: read-out: Activity
Cytochrome P450 3A4 = Cytochrome P450 3A4 (Homo sapiens, UniProt P08684); assay: Inhibition of CYP3A4 (unknown origin) using midazolam as substrate; format: ADME
[4] = molecular target: T1, Matrix protein VP40 (Lake Victoria marburgvirus (strain Ravn-87) (MARV) (Marburg virus (strainKenya/Ravn/1987))); assay: Inhibition of Marburg virus VP40 PPxY L-domain motif expressed in HEK293T cells assessed as reduction in VLP budding at 30 nM after 24 hrs by Western blot analysis relative to control; format: cell-based; conditions: HEK-293T
[5] = Cytotoxicity against African green monkey Vero E6 cells assessed as cell viability at 0.1 uM after 24 hrs by MTT assay relative to control; format: cell-based; conditions: chlorocebus sabaeus, read-out: Activity
[6] = molecular target: T1, Matrix protein VP40 (Lake Victoria marburgvirus (strain Ravn-87) (MARV) (Marburg virus (strainKenya/Ravn/1987))); assay: Inhibition of Marburg virus VP40 PPxY L-domain motif expressed in HEK293T cells assessed as reduction in VLP budding at 1 uM relative to control; format: cell-based; conditions: HEK-293T
[7] = Cytotoxicity against human HEK293T cells assessed as cell viability at 1 uM after 24 hrs by MTT assay relative to control; format: cell-based, HEK-293T; conditions: read-out: Activity
[8] = Cytotoxicity against human HEK293T cells assessed as cell viability at 10 uM after 24 hrs by MTT assay relative to control; format: cell-based, HEK-293T; conditions: read-out: Activity
[9] = molecular target: T1, Matrix protein VP40 (Lake Victoria marburgvirus (strain Ravn-87) (MARV) (Marburg virus (strainKenya/Ravn/1987))); assay: Inhibition of Marburg virus VP40 PPxY L-domain motif expressed in HEK293T cells assessed as reduction in VLP budding at 100 nM after 24 hrs by Western blot analysis; format: cell-based; conditions: HEK-293T
[10] = molecular target: T1, Matrix protein VP40 (Lake Victoria marburgvirus (strain Ravn-87) (MARV) (Marburg virus (strainKenya/Ravn/1987))); assay: Inhibition of Marburg virus VP40 PPxY L-domain motif expressed in HEK293T cells assessed as reduction in VLP budding at 0.1 uM relative to control; format: cell-based; conditions: HEK-293T
Liver microsome [11] = assay: Half life in human liver microsomes; format: ADME
[12] = Cytotoxicity against African green monkey Vero E6 cells assessed as cell viability at 0.01 uM after 24 hrs by MTT assay relative to control; format: cell-based; conditions: chlorocebus sabaeus, read-out: Activity
[13] = Cytotoxicity against human HEK293T cells assessed as cell viability at 0.1 uM after 24 hrs by MTT assay relative to control; format: cell-based, HEK-293T; conditions: read-out: Activity
[14] = Cytotoxicity against African green monkey Vero E6 cells assessed as cell viability at 1 uM after 24 hrs by MTT assay relative to control; format: cell-based; conditions: chlorocebus sabaeus, read-out: Activity
[15] = Cytotoxicity against African green monkey Vero E6 cells assessed as cell viability at 10 uM after 24 hrs by MTT assay relative to control; format: cell-based; conditions: chlorocebus sabaeus, read-out: Activity
[16] = molecular target: T1, Matrix protein VP40 (Lake Victoria marburgvirus (strain Ravn-87) (MARV) (Marburg virus (strainKenya/Ravn/1987))); assay: Inhibition of Marburg virus VP40 PPxY L-domain motif expressed in HEK293T cells assessed as reduction in VLP budding at 0.3 uM relative to control; format: cell-based; conditions: HEK-293T
[17] = Half life in mouse liver microsomes; format: ADME
Liver microsome [18] = assay: Intrinsic clearance in human liver microsomes assessed per mg of protein; format: ADME

Cytochrome P450 3A4, sequence (P08684 whole entry): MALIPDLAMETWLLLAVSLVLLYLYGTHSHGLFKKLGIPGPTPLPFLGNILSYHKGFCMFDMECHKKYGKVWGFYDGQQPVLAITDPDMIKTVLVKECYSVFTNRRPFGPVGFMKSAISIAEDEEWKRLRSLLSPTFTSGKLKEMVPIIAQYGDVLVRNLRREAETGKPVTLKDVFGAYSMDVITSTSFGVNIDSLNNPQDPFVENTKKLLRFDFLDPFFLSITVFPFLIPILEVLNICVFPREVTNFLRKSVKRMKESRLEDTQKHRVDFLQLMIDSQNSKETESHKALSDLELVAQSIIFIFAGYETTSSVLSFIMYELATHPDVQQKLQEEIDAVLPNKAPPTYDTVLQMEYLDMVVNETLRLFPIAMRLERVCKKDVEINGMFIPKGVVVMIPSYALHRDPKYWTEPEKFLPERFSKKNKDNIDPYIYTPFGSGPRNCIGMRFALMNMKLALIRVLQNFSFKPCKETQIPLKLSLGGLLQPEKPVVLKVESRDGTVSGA

Row | Compound | inhibition [2] | inhibition [6] | inhibition [10] | inhibition [16] | other results
1 | Cc1ccccc1NC(=O)NC(=O)CSc1nc2ccccc2nc1C | 83% | 100% | 98% |  | inhibition [1]: Active; viability at 24 h, 0.01 µM [3]: 98.6%; IC50 (Cytochrome P450 3A4): > 33 µM; fold change (FC) [4]: 3; viability at 24 h, 0.1 µM [5]: 92.3%; viability at 24 h, 1 µM [7]: 62.8%; viability at 24 h, 10 µM [8]: 60.5%; inhibition [9]: > 90%; t1/2 (Liver microsome [11]): 46.6 min; viability at 24 h, 0.01 µM [12]: 96.8%; viability at 24 h, 0.1 µM [13]: 71.7%; viability at 24 h, 1 µM [14]: 71.2%; viability at 24 h, 10 µM [15]: 61.7%
2 | Cc1nc2ccccc2nc1SCC(=O)NC(=O)Nc1c(C)n[nH]c1C |  | 50% |  |  | 
3 | CCc1ccc(C)nc1NC(=O)NC(=O)CSc1nc2ccccc2nc1C | 48% |  |  |  | 
4 | Cc1ccc(F)cc1NC(=O)NC(=O)CSc1nc2ccccc2nc1C |  |  | 89% |  | 
5 | Cc1ccc(NC(=O)NC(=O)CSc2nc3ccccc3nc2C)c(C)c1 | 62% |  |  | 100% | 
6 | Cc1ncccc1NC(=O)NC(=O)CSc1nc2ccccc2nc1C |  |  | 41% |  | 
7 | COc1ccccc1NC(=O)NC(=O)CSc1nc2ccccc2nc1C | inactive | 96% | 60% | 89% | 
8 | O=C(CSc1nc2ccccc2nc1C(F)(F)F)NC(=O)Nc1ccccc1Cl |  | inactive | inactive | inactive | IC50 (Cytochrome P450 3A4): > 33 µM; t1/2 [17]: 49.9 min; Intrinsic clearance (Liver microsome [18]): 0.77 mL/min; t1/2 (Liver microsome [11]): 71.7 min
9 | Cc1ccc(NC(=O)NC(=O)CSc2nc3ccccc3nc2C)cc1C | 29% |  |  | 97% | 
10 | Cc1nc2ccccc2nc1SCC(=O)NC(=O)Nc1cccnc1 |  | 78% | 44% |  | 
11 | Cc1cccc(NC(=O)NC(=O)CSc2nc3ccccc3nc2C)c1C | 41% |  |  | 98% | 
12 | O=C(CSc1cnc2ccccc2n1)NC(=O)Nc1ccccc1F |  | inactive |  |  | 
13 | COc1ccc(NC(=O)NC(=O)CSc2nc3ccccc3nc2C)cc1 | 25% | 100% | 99% |  | 
14 | Cc1ccc(NC(=O)NC(=O)COc2nc3ccccc3nc2C)cc1 |  |  | 70% |  | 
15 | Cc1nc2ccccc2nc1SCC(=O)NC(=O)Nc1c(C)nn(-c2ccccc2)c1C |  | inactive |  |  | 
16 | Cc1ccc(NC(=O)NC(=O)CSc2nc3ccccc3nc2C)nc1 |  |  | 96% |  | 
17 | Cc1cccc(C)c1NC(=O)NC(=O)CSc1nc2ccccc2nc1C | inactive |  |  | 100% | 
18 | Cc1ccc(NC(=O)NC(=O)CSc2nc3ccccc3nc2C)cn1 |  |  | 87% |  | 
19 | Cc1nc2ccccc2nc1SCC(=O)NC(=O)Nc1cccc(F)c1 |  | 41% |  |  | 
20 | Cc1ccccc1NC(=O)NC(=O)COc1nc2ccccc2nc1C |  | 100% | 58% | 100% | 
21 | Cc1nc2ccccc2nc1SCC(=O)NC(=O)Nc1c(C)nn(C)c1C |  | 64% |  |  | 
22 | Cc1nc2ccccc2nc1SCC(=O)NC(=O)Nc1ccccc1F | inactive | 100% | 98% | 100% | 
23 | COc1cccc(NC(=O)NC(=O)CSc2nc3ccccc3nc2C)c1 | inactive | 100% | 60% | 98% | 

Row | Compound | inhibition [2] | inhibition [6] | inhibition [10] | inhibition [16] | other results
24 | Cc1nc2ccccc2nc1SCC(=O)NC(=O)NCc1ccccc1 |  | 60% | 29% |  | 
25 | Cc1nc2ccccc2nc1SCC(=O)NC(=O)Nc1cc[nH]n1 |  | inactive |  |  | 
26 | Cc1nc2ccccc2nc1SCC(=O)NC(=O)Nc1cc(Cl)ccc1Cl | 37% |  |  |  | 
27 | Cc1cccc(NC(=O)NC(=O)CSc2nc3ccccc3nc2C)c1 | inactive | 100% | inactive | 71% | 
28 | Cc1nc2ccccc2nc1SCC(=O)NC(=O)Nc1cccc(Cl)c1 |  |  |  | 49% | 
29 | Cc1nc2ccccc2nc1SCC(=O)NC(=O)N1CCc2ccccc21 |  | inactive |  |  | 
30 | Cc1nc2ccccc2nc1SCC(=O)NC(=O)Nc1cccc(C#N)c1 |  | 72% |  |  | 
31 | Cc1ccncc1NC(=O)NC(=O)CSc1nc2ccccc2nc1C |  |  | 85% |  | 
32 | Cc1c(F)cccc1NC(=O)NC(=O)CSc1nc2ccccc2nc1C(F)(F)F |  |  | inactive |  | 
33 | Cc1cc(C)cc(NC(=O)NC(=O)CSc2nc3ccccc3nc2C)c1 | 44% |  |  | 100% | 
34 | Cc1nc2ccccc2nc1SCC(=O)NC(=O)Nc1ccccn1 |  | 80% | inactive |  | 
35 | CCc1nc2ccccc2nc1SCC(=O)NC(=O)Nc1cccc(F)c1C |  | 67% | inactive | inactive | t1/2 [17]: 54.8 min; t1/2 (Liver microsome [11]): 31.3 min
36 | O=C(CSc1nc2ccccc2nc1Cc1ccccc1)NC(=O)Nc1ccc(F)cc1 |  | inactive |  |  | 
37 | Cc1nc2ccccc2nc1SCC(=O)NC(=O)N(C)c1ccccc1 |  | inactive |  |  | 
38 | Cc1nc2ccccc2nc1SCC(=O)NC(=O)Nc1ccc(Cl)cc1 |  |  | 82% |  | 
39 | Cc1nc2ccccc2nc1SCC(=O)NC(=O)NCc1cccs1 |  | 97% | inactive |  | 
40 | Cc1nc2ccccc2nc1SCC(=O)NC(=O)Nc1ccccc1C#N |  | 87% |  |  | 
41 | Cc1nc2ccccc2nc1S(=O)(=O)CC(=O)NC(=O)Nc1ccc(F)cc1 |  | inactive |  |  | 
42 | Cc1ccc(C)c(NC(=O)NC(=O)CSc2nc3ccccc3nc2C)c1 | 68% |  |  | 100% | IC50 (Cytochrome P450 3A4): > 33 µM; t1/2 [17]: 1.9 min; Intrinsic clearance (Liver microsome [18]): 0.71 mL/min; t1/2 (Liver microsome [11]): 77.2 min
43 | Cc1cccnc1NC(=O)NC(=O)CSc1nc2ccccc2nc1C |  |  | 45% |  | 
44 | Cc1nc2ccccc2nc1SCC(=O)N(C)C(=O)Nc1ccccc1F |  | inactive |  |  | 
45 | CCc1nc2ccccc2nc1SCC(=O)NC(=O)Nc1ccccc1Cl |  |  | inactive |  | 
46 | Cc1nc2ccccc2nc1SCC(=O)NC(=O)Nc1ccc(F)cc1 |  | 80% |  |  | 
